Data taken from patent US20250228796A1, “SKELETAL MUSCLE ENHANCER” (SATO PHARMACEUTICAL CO., LTD., priority 2022, published 2025).

Tests used:
Format in all cases: in vivo, mouse
[1] = system: tibialis anterior muscle of muscle atrophy model; test: Muscle atrophy model (hindlimb fixation): muscle weight and muscle fiber cross-sectional area; settings: intramuscular
Source text: (§1) Seven-week old C57BL/6 Male mice (CLEA Japan, Inc.) were purchased, and used for experiment at the age of 8 weeks.
A model animal to which muscle atrophy had been caused by a method of fixing a hindlimb (J Appl Physiol, vol. 106, pp. 2049-2059, 2009) was used.
(§2) Under the anesthesia with isoflurane, the left hindlimb of the mouse in a bent state was fixed with a surgical stapler (Kaiser Plus. KEISEI MEDICAL INDUSTRIAL CO., LTD.). The right hindlimb of the same mouse was assigned to the sham-treatment side, and no fixation treatment was performed. After 3 or 7 days of the start of fixation, the tibialis anterior muscle (one of skeletal muscles) was collected by dissection. The sample collected after 3 days was supplied to the expression analysis of the muscle atrophy-related genes, and the sample collected after 7 days was supplied to the measurement of a muscle weight and the preparation of a muscle tissue section.
(§3) Body weight of the mouse was measured before collecting the tibialis anterior muscle. Furthermore, the weight of the collected tibialis anterior muscle was measured. From these measured values, the ratio (%) of the skeletal muscle weight per body weight of the mouse (weight of tibialis anterior muscle/body weight of mouse) was calculated.
(§4) Immediately after the collection of the tibialis anterior muscle, the tibialis anterior muscle was immersed in isopentane cooled with liquid nitrogen and was rapidly frozen. The frozen muscle tissue was cut into slices each having a thickness of 10 μm by using a cryostat (Leica Biosystems), and the slice was attached onto an antistripping coated slide glass (Matsunami Glass Ind., Ltd.).
A muscle tissue section was sufficiently air dried for 30 minutes under room temperature. After that, the muscle tissue sections was fixed by immersing it in acetone cooled to −30° C. and treating at −30° C. for 20 minutes. The fixed sections was air dried once and washed with PBS. Then the section was blocked by dropwisely adding a blocking reagent (Blocking One. NACALAI TESQUE, INC.) to the section and subjected to the blocking treatment for 1 hour. Next, a primary antibody (Anti-laminin-2 (α-2 Chain) antibody Rat monoclonal (Sigma-Aldrich)) obtained by being diluted 500 times with a blocking reagent was added dropwise, and the reaction was conducted at overnight at 4° C. Since laminin to which a primary antibody binds is a protein expressed in the basement membranes of all muscle cells, the laminin was used in this experiment as an index in order to measure the area of individual muscle cells in a section. The muscle tissue section after the reaction with the primary antibody was washed with PBS, and then was reacted for 1 hour with a secondary antibody (CF 488A Goat Anti-Rat IgG (H+L) (Biotium)) obtained by being diluted 500 times with the blocking reagent. The secondary antibody that is an anti-rat antibody conjugated with a fluorescent dye binds to the primary antibody, and stains the laminin. […] Set with DAPI” (Vector), and then the fluorescence observation was performed with an inverted microscope FSX100 (Olympus).
The muscle fiber cross-sectional area was measured basis of the image data taken from the fluorescence observation. After the image data was taken into image analysis software ImageJ (NIH), the cross-sectional area of the individual cells were measured on the basis of the cell membrane stained with laminin. […]

[2] = system: Trim63 (MuRF1) mRNA expression; test: Expression analysis of muscle atrophy-related gene Trim63 in muscle atrophy model; settings: 3 days
Description: as §2
(§5) The tibialis anterior muscle was homogenized with Sepasol-RNA I Super G (NACALAI TESQUE, INC.), 1-bromo-3-chloropropane was added thereto, the mixture was stirred, and further centrifuged, then RNA was extracted from the supernatant. The extracted RNA was recovered with 2-propanol and 75% ethanol, and then subjected to the reverse transcription reaction (using ReverTra Ace qPCR RT Master Mix (Toyobo Co., Ltd.) according to the attached protocol) to synthesize cDNA. The synthesized CDNA was subjected to the real-time PCR method (using Applied Biosystems 7500 Real-Time PCR System (Thermo Fisher Scientific)) to measure mRNA expression of three genes, Trim63 (MuRF1), myostatin (Mstn), and Gapdh. Primer sequences used are as follows.
(§6) The expression levels of mRNA of Trim63 and Mstn (mTrim63 and mMstn) were calculated as a ratio to the expression level of mRNA of Gapdh (mGapdh). […]
(§7) Spermidine trihydrochloride (SPD) was administered to muscle atrophy model animals by three administration routes, and the expression variations of muscle atrophy-related genes Trim63 and Mstn were measured. […]
(§8) The mRNA expression of Trim63 and Mstn in the tibialis anterior muscle of the left hindlimb (fixed: Staple) and the right hindlimb (sham treatment: Sham) collected after 3 days of the start of fixation was measured.

[3] = system: tibialis anterior muscle of muscle damage model (CTX); test: Muscle damage model (cardiotoxin): muscle weight and regenerated muscle fiber cross-sectional area; settings: 7 days after CTX
Description: as §1
A model animal to which muscle damage had been caused by administion of snake venom cardiotoxin (CTX) was used. The model animal has been widely used in studies on regeneration from muscle damage.
Under the anesthesia with isoflurane, 50 μL of 10 μM CTX was administered to the tibialis anterior muscle of the right hindlimb of the mouse. Fifty μL of a phosphate buffer (PBS) was administered as a Vehicle to the tibialis anterior muscle of left hindlimb of the same mouse. After 7 days of the administration of CTX, the tibialis anterior muscle was collected by dissection, and supplied to the measurement of muscle weight and preparation of a muscle tissue section.
as §3, §4
A muscle tissue section was sufficiently air dried for 30 minutes under room temperature. After that, the muscle tissue sections was fixed by immersing it in acetone cooled to −30° C. and treating at −30° C. for 20 minutes. The fixed sections was air dried once and washed with PBS. Then the section was blocked by dropwisely adding a blocking reagent (Blocking One. NACALAI TESQUE, INC.) to the section and subjected to the blocking treatment for 1 hour. Next, a primary antibody (Anti-laminin-2 (α-2 Chain) antibody Rat monoclonal (Sigma-Aldrich)) obtained by being diluted 500 times with a blocking reagent was added dropwise, and the reaction was conducted at overnight at 4° C. Since laminin to which a primary antibody binds is a protein expressed in the basement membranes of all muscle cells, the laminin was used in this experiment as an index in order to measure the area of individual muscle cells in a section. The muscle tissue section after the reaction with the primary antibody was washed with PBS, and then was reacted for 1 hour with a secondary antibody (CF 488A Goat Anti-Rat IgG (H+L) (Biotium)) obtained by being diluted 500 times with the blocking reagent. The secondary antibody that is an anti-rat antibody conjugated with a fluorescent dye binds to the primary antibody, and stains the laminin. The muscle tissue sections after the reaction with the secondary antibody was washed with PBS, and sealed by using “VECTASHIELD Hard. Set with DAPI” (Vector), and then the fluorescence observation was performed with an inverted microscope FSX100 (Olympus).
The muscle fiber cross-sectional area was measured basis of the image data taken from the fluorescence observation. After the image data was taken into image analysis software ImageJ (NIH), the cross-sectional area of the individual cells were measured on the basis of the cell membrane stained with laminin. For the area measurement, “Analyze Particles” that is an add-in analysis program on ImageJ was used. The measurement results were shown as a distribution chart (histogram) of the areas and number of single-muscle fibers, and as an average value of the cross-sectional areas of all the single muscle fibers (mean muscle fiber area).
In the muscle damage model (Example 3), the regenerated muscle was used as a measurement target. […]

[4] = system: myostatin (Mstn) mRNA expression; test: Expression analysis of muscle atrophy-related gene Mstn in muscle atrophy model; settings: 3 days
Description: as §2, §5, §6, §7, §8

[5] = intraperitoneal, 19.6 mM 10 mL/kg once a day

Cl.Cl.Cl.NCCCCNCCCN [SPD, Spermidine trihydrochloride]
muscle weight loss due to hindlimb fixation ([1]; 196 mM 10 μL once a day, 7 days, **P<0.01): significant suppression | muscle weight vs Vehicle administration group ([1]; 196 mM 10 μL once a day, left hindlimb (fixed: Staple), 7 days after start of fixation): significant increase | muscle weight vs Vehicle administration group ([1]; 196 mM 10 μL once a day, right hindlimb (sham treatment: Sham), 7 days after start of fixation): significant increase | mean muscle fiber area vs Vehicle ([1]; 7 days after start of fixation, ***P<0.001): significant increase | histogram of single-muscle fiber area vs Vehicle ([1]; 7 days after start of fixation, whole muscle): shifted to the right side | Trim63 expression suppression (reduction vs Staple, Vehicle) ([2]; intramuscular, 196 mM 10 μL once a day, fixed left hindlimb (Staple), *P<0.05): 65.6% | Trim63 expression suppression (reduction vs Staple, Vehicle) ([2]; intraperitoneal, 19.6 mM 10 mL/kg once a day, Staple): 42.3% | Trim63 expression suppression ([2]; oral, 30 mM in drinking water): no expression suppression | suppression of muscle weight loss by CTX ([3]; intramuscular, 196 mM 10 μL once a day): remarkable suppression | histogram of regenerated single-muscle fiber area vs Vehicle ([3]; intramuscular): shifted to the right side | mean muscle fiber area (regenerated muscle) vs Vehicle ([3]; intramuscular, ***P<0.001): significant increase | suppression of muscle weight loss by CTX [3, 5]: a significant suppression was not observed | histogram of regenerated single-muscle fiber area vs Vehicle ([3]; intraperitoneal): no shift | mean muscle fiber area (regenerated muscle) vs Vehicle ([3]; intraperitoneal): no significant increase | suppression of muscle weight loss by CTX ([3]; oral, 30 mM in drinking water): a significant suppression was not observed | histogram of regenerated single-muscle fiber area vs Vehicle ([3]; oral): no shift | mean muscle fiber area (regenerated muscle) vs Vehicle ([3]; oral): no significant increase | Mstn expression suppression (reduction vs Staple, Vehicle) ([4]; intramuscular, 196 mM 10 μL once a day, Staple, **P<0.01): 61.1% | Mstn expression suppression [4, 5]: did not show significant expression suppression | Mstn expression suppression ([4]; oral, 30 mM in drinking water): did not show significant expression suppression
